From ChEMBL document CHEMBL5212743, “Selectivity Literature for EUbOPEN Chemogenomics Library wave 3” (2023)
Blank lines part the entries; values can stand above or below the compound they belong to.

Key:
[1] = biological target: T1, Gamma-aminobutyric acid receptor subunit alpha-1 (Homo sapiens, UniProt P14867); test: Selectivity interaction (GPCR panel (PDSP screen)) EUB0000739a GABRA1
T1 sequence (P14867 whole entry): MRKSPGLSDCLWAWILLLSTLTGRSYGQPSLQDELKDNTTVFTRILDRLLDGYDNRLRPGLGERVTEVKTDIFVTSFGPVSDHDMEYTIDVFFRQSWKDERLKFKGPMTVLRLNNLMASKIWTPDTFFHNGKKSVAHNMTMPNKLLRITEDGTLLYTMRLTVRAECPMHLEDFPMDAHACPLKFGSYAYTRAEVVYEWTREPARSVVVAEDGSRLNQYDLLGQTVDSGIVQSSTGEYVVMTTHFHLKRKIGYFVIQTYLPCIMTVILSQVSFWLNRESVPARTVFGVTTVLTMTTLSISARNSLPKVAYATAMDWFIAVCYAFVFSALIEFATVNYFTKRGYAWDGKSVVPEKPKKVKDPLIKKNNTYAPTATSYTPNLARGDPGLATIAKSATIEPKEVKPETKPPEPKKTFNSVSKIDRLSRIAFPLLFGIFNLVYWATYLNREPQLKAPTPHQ

[2] = biological target: Tyrosine-protein kinase JAK2 (Homo sapiens, UniProt O60674); settings: at 1 µM
[3] = biological target: T2, Alpha-1B adrenergic receptor (Homo sapiens, UniProt P35368); test: Selectivity interaction (GPCR panel (PDSP screen)) EUB0000739a ADRA1B
T2 sequence (P35368 whole entry): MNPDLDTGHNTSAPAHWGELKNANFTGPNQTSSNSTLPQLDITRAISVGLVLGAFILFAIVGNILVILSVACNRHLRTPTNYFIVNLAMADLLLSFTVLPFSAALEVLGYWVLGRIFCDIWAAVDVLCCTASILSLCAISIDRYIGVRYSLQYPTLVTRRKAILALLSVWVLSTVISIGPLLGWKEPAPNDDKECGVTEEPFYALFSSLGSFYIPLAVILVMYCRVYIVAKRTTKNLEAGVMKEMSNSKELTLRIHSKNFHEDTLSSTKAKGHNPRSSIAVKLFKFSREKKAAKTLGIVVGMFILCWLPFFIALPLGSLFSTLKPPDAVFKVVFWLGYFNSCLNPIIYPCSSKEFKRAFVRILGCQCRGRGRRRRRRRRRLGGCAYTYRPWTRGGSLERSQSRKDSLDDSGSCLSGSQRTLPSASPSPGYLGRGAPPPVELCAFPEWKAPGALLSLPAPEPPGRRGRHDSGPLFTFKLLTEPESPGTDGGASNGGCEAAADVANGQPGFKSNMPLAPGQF

[4] = biological target: Tyrosine-protein kinase ABL1 (Homo sapiens, UniProt P00519); settings: at 1 µM
[5] = biological target: High affinity nerve growth factor receptor (Homo sapiens, UniProt P04629); test: Selectivity interaction (KinomeScan (DiscoverX, competition-binding assay))
[6] = biological target: NUAK family SNF1-like kinase 1 (Homo sapiens) (UniProt O60285); test: Selectivity interaction (Kinase panel (Millipore)) EUB0000153b NUAK1; settings: at 10 µM
[7] = biological target: Ribosomal protein S6 kinase alpha-6 (Homo sapiens) (UniProt Q9UK32); test: Selectivity interaction (Kinase panel (Millipore)) EUB0000153b RPS6KA6; settings: at 10 µM
[8] = biological target: Vascular endothelial growth factor receptor 2 (Homo sapiens, UniProt P35968); test: Selectivity interaction (Kinase panel (enzymatic assay)) EUB0000153b KDR
[9] = biological target: Ribosomal protein S6 kinase alpha-2 (Homo sapiens) (UniProt Q15349); test: Selectivity interaction (Kinase panel (Millipore)) EUB0000153b RPS6KA2; settings: at 10 µM
[10] = biological target: Tyrosine-protein kinase SYK (Homo sapiens, UniProt P43405); test: Selectivity interaction (Kinase panel (enzymatic assay)) EUB0000153b SYK
[11] = biological target: TGF-beta receptor type-1 (Homo sapiens, UniProt P36897); test: Selectivity interaction (Kinase panel (enzymatic assay)) EUB0000153b TGFBR1
[12] = biological target: Rho-associated protein kinase 2 (Homo sapiens) (UniProt O75116); test: Selectivity interaction (Kinase panel (Millipore)) EUB0000153b ROCK2; settings: at 10 µM
[13] = biological target: cAMP-dependent protein kinase catalytic subunit PRKX (Homo sapiens) (UniProt P51817); test: Selectivity interaction (Kinase panel (Millipore)) EUB0000153b PRKX; settings: at 10 µM
[14] = biological target: Phosphatidylinositol 4,5-bisphosphate 3-kinase catalytic subunit gamma isoform (Homo sapiens, UniProt P48736); test: Selectivity interaction (Kinase panel (enzymatic assay)) EUB0000153b PIK3CG
[15] = biological target: Glycogen synthase kinase-3 beta (Homo sapiens, UniProt P49841); test: Selectivity interaction (Kinase panel (enzymatic assay)) EUB0000153b GSK3B
[16] = biological target: Inhibitor of nuclear factor kappa-B kinase subunit alpha (Homo sapiens, UniProt O15111); test: Selectivity interaction (Kinase panel (enzymatic assay)) EUB0000153b CHUK
[17] = biological target: RAC-alpha serine/threonine-protein kinase (Homo sapiens, UniProt P31749); test: Selectivity interaction (Kinase panel (enzymatic assay)) EUB0000153b AKT1
[18] = biological target: T3, Serine/threonine-protein kinase Sgk1 (Homo sapiens) (UniProt O00141); test: Selectivity interaction (Kinase panel (Millipore)) EUB0000153b SGK1; settings: at 10 µM
T3 sequence (whole entry): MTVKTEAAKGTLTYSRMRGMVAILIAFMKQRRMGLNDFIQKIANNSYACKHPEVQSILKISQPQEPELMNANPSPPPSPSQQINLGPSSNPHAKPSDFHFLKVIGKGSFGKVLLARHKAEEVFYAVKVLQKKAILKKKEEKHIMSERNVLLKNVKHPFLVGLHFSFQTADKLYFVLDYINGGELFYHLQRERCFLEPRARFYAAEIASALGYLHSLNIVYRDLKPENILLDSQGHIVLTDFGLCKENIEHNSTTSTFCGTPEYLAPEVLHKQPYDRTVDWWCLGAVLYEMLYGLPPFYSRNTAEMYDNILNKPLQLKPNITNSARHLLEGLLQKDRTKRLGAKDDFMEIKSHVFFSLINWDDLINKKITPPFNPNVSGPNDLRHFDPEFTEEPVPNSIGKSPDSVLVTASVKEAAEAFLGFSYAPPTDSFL

[19] = biological target: Mitogen-activated protein kinase kinase kinase 5 (Homo sapiens, UniProt Q99683); test: Selectivity interaction (Kinase panel (enzymatic assay)) EUB0000153b MAP3K5
[20] = biological target: Serine/threonine-protein kinase Sgk2 (Homo sapiens) (UniProt Q9HBY8); test: Selectivity interaction (Kinase panel (Millipore)) EUB0000153b SGK2; settings: at 10 µM
[21] = biological target: T2, Alpha-1B adrenergic receptor; test: Selectivity interaction (Receptors and enzyme panel (internal screening at GSK)) EUB0000215b ADRA1B
[22] = biological target: T4, Histone-lysine N-methyltransferase EZH1 (Homo sapiens, UniProt Q92800); test: Selectivity interaction (Methyltransferase panel (HotSpot screen, Reaction Biology, radioisotope-based filter binding assays)) EUB0000215b EZH1
T4 sequence (Q92800 whole entry): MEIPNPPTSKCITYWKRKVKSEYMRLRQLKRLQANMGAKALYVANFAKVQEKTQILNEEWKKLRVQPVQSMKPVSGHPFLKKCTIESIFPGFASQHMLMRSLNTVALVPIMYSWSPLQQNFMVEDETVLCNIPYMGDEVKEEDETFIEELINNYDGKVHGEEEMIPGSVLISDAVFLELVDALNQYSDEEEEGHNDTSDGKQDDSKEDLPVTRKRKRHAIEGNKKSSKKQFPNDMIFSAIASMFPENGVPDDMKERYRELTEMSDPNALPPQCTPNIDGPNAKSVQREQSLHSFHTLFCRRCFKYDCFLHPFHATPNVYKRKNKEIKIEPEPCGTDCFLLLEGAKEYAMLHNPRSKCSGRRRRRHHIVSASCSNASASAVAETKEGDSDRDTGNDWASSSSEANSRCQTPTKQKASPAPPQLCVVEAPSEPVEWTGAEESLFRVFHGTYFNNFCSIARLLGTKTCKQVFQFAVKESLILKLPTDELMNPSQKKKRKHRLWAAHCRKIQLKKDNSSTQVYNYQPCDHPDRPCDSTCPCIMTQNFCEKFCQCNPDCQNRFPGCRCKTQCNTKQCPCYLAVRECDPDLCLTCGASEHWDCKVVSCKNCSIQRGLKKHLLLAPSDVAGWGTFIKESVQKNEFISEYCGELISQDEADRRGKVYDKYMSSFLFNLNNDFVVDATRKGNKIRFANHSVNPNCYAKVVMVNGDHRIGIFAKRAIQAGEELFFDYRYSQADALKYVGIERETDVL

[23] = biological target: Sodium channel regulatory subunit beta-2 (Homo sapiens, UniProt O60939); test: Selectivity interaction (Enzyme and Receptor panel (MSD Pharma/Taiwan)) EUB0000753a SCN2B
[24] = biological target: Mitogen-activated protein kinase kinase kinase kinase 5 (Homo sapiens) (UniProt Q9Y4K4); settings: at 1 µM
[25] = biological target: Activin receptor type-2A (Homo sapiens) (UniProt P27037); settings: at 1 µM
[26] = biological target: Mitogen-activated protein kinase kinase kinase kinase 4 (Homo sapiens) (UniProt O95819); settings: at 1 µM
[27] = biological target: Epidermal growth factor receptor (Homo sapiens, UniProt P00533); settings: at 1 µM

Mitogen-activated protein kinase kinase kinase kinase 5 (Homo sapiens), sequence (Q9Y4K4 whole entry, looked up): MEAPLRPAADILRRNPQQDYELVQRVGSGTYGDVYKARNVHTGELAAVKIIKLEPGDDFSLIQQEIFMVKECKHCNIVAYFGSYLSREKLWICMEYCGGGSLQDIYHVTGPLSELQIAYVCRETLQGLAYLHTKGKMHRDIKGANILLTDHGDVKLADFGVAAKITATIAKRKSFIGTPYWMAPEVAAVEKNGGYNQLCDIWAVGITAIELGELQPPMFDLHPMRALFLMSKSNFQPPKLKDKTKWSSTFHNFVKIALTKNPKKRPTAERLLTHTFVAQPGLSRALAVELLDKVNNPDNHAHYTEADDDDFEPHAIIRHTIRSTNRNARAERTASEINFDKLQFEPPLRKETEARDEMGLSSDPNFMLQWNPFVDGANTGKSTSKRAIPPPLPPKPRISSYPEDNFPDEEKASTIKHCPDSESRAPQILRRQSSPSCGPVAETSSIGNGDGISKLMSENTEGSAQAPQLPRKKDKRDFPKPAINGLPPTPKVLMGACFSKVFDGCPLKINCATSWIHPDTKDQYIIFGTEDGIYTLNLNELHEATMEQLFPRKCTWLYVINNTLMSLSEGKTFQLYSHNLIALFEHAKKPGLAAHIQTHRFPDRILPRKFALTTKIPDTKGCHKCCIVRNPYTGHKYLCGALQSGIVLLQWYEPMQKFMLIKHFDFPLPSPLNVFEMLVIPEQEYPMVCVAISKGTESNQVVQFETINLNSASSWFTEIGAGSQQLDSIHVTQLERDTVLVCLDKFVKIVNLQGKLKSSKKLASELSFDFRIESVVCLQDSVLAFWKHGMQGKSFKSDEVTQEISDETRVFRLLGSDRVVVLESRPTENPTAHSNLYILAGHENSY
High affinity nerve growth factor receptor, sequence (P04629 whole entry): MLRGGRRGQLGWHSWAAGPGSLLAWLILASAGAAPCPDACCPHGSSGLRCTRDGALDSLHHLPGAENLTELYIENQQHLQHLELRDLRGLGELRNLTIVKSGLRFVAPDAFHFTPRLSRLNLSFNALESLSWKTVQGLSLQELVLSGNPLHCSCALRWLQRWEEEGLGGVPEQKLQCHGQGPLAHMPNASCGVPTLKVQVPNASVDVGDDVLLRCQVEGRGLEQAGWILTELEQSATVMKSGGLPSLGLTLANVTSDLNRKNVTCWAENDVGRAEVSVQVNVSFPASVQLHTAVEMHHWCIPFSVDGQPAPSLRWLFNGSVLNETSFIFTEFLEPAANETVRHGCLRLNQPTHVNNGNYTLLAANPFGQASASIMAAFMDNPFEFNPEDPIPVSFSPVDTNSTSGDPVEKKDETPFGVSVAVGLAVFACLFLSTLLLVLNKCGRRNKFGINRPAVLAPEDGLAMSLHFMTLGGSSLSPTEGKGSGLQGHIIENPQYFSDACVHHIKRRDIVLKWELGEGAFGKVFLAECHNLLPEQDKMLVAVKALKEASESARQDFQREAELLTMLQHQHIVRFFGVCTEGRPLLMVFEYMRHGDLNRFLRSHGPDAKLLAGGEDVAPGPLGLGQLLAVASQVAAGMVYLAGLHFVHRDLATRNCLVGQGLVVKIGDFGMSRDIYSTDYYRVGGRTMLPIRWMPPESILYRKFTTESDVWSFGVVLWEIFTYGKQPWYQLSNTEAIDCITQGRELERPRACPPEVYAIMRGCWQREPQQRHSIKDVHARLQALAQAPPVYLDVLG
Vascular endothelial growth factor receptor 2, sequence (P35968 whole entry): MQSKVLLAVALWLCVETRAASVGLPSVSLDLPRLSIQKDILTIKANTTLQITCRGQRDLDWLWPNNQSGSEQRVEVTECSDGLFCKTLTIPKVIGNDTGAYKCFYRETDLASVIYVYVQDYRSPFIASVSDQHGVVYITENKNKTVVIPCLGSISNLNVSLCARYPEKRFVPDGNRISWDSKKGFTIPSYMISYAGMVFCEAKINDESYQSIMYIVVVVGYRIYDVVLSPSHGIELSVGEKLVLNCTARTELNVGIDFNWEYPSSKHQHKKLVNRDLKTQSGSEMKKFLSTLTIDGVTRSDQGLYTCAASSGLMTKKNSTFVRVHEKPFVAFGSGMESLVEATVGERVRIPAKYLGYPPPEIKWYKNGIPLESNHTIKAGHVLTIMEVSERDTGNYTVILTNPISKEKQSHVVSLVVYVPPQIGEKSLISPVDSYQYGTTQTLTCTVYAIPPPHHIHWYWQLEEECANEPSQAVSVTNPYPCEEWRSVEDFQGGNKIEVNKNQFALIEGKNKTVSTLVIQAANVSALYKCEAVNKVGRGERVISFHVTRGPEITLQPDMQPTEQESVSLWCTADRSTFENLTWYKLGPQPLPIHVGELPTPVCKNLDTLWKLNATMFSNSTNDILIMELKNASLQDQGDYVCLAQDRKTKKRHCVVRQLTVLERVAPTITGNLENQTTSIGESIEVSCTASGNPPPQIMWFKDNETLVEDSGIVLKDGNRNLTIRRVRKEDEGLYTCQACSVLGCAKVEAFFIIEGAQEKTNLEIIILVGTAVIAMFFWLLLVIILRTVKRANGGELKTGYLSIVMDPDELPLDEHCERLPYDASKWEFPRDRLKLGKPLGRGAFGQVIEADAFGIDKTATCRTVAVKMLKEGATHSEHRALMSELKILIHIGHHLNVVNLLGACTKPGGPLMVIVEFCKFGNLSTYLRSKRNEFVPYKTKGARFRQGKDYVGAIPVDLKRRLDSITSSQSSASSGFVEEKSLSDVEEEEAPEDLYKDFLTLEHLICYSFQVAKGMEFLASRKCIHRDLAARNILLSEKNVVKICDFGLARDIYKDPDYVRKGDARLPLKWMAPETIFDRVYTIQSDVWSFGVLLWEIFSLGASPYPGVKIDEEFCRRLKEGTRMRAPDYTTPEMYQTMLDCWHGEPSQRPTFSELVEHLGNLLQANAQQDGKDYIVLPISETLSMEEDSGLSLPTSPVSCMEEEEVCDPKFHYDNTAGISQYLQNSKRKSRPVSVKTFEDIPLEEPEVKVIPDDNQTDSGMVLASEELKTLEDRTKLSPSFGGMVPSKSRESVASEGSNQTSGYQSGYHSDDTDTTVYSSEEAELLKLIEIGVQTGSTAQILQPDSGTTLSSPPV
Ribosomal protein S6 kinase alpha-2 (Homo sapiens), sequence (Q15349 whole entry, looked up): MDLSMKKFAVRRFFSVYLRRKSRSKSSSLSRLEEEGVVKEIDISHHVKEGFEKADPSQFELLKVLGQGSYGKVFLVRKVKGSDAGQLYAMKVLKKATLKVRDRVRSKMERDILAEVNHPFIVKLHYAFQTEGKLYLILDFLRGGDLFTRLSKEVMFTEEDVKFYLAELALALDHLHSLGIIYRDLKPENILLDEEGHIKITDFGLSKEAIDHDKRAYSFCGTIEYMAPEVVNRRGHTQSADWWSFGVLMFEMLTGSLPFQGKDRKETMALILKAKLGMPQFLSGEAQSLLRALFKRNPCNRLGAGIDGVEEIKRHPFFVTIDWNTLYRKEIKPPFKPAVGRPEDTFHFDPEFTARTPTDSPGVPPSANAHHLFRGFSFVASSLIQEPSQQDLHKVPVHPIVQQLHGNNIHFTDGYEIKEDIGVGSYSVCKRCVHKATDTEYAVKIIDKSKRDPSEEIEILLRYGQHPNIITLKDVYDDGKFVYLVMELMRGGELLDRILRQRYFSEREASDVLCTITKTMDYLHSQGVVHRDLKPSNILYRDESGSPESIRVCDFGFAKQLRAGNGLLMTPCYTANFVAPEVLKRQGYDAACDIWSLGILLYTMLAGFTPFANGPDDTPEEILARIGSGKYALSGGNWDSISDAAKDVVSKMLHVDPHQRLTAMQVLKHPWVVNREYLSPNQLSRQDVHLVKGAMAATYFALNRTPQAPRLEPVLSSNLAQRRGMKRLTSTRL
Mitogen-activated protein kinase kinase kinase 5, sequence (Q99683 whole entry): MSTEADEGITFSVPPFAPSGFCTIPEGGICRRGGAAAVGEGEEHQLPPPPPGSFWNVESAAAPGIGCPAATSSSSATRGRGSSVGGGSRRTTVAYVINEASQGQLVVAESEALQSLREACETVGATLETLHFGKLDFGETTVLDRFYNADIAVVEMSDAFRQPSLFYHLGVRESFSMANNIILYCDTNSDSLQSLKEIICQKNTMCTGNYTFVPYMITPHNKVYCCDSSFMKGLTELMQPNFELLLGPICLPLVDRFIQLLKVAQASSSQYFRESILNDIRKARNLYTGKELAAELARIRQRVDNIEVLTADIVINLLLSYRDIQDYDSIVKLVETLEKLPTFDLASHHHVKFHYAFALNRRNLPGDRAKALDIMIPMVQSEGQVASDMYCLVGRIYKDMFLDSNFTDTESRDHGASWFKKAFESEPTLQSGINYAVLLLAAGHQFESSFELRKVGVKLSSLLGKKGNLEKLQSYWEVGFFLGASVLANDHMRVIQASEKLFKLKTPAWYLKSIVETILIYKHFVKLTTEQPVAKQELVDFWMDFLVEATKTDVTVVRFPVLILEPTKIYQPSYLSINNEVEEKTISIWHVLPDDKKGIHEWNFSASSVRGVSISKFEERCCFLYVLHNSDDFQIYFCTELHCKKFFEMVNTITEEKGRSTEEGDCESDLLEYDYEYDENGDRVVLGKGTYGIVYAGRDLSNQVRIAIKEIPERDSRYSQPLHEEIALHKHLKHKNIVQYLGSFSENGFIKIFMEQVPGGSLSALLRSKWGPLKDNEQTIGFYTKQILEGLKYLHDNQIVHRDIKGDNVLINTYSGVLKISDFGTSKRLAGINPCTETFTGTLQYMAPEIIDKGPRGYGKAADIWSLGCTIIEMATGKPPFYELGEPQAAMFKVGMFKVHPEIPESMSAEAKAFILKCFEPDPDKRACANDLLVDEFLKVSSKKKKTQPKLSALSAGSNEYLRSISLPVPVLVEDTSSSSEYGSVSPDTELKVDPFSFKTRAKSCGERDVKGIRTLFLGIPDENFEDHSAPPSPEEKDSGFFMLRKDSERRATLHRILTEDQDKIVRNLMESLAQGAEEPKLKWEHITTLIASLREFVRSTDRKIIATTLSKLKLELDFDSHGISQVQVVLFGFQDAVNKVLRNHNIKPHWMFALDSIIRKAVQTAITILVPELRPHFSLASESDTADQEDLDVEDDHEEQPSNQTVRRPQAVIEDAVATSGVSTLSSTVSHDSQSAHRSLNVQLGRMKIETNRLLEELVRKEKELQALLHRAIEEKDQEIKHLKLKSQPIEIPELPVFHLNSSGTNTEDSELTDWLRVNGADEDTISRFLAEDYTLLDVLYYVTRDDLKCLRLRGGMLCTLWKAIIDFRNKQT

Structure (SMILES): COc1ccc(COc2ccc(Cc3cnc(N)nc3N)cc2OC)cc1 [GW632580X]
Kd [5]: < 0.1 µM

Structure (SMILES): CNc1nc(-c2ccc3c(N)n[nH]c3c2)cc(N2C[C@@H](C(=O)NC3CCCCC3)CC[C@H]2C)n1
% of control [6]: 16% | % of control [7]: 12% | IC50 [8]: > 10 µM | % of control [9]: 14% | IC50 [10]: > 10 µM | IC50 [11]: > 10 µM | % of control [12]: 17% | % of control [13]: 4% | IC50 [14]: > 10 µM | IC50 [15]: > 10 µM | IC50 [16]: > 10 µM | IC50 [17]: > 10 µM | % of control [18]: 13% | IC50 [19]: > 10 µM | % of control [20]: 0%

Structure (SMILES): CCCc1cc(C)[nH]c(=O)c1CNC(=O)c1cc(-c2ccnc(N3CCN(C)CC3)c2)cc2c1cnn2C(C)C
IC50 [21]: 10 µM | IC50 [22]: 0.24 µM

More lines, now with the values ahead:

Ki [1]: 5.07 µM | % of control [2]: 34% | Ki [3]: > 10 µM | % of control [4]: 47%
Structure (SMILES): COc1cc(-c2cn([C@H]3CCc4ccccc4N(CC(F)(F)F)C3=O)nn2)ccc1-n1ccc(C)n1

IC50 [23]: 1 µM | % of control [24]: 5.8% | % of control [25]: 0% | % of control [26]: 0% | % of control [27]: 0%
Structure (SMILES): COc1cc(-c2cn([C@H]3CCc4c(F)cccc4N(CC(F)(F)F)C3=O)nn2)ccc1-n1cnc(C)c1
